Drawing on patent US7371751B2, “Thiazole derivatives” (Hoffmann-La Roche Inc., priority 2003, dated 2008), this text covers IC50 and body weight for eleven compounds.

The target in experiment [1] is T1, human cannabis CB1 receptor (Homo sapiens, UniProt P21554).
T1 construct: expressed in transfected cells; host or cells: human embryonic kidney (HEK) cells, Semliki Forest Virus system, membrane preparation
Briefly: Affinity for cannabinoid CB1 receptors, [3H]-CP-55,940 radioligand binding on HEK cell membrane preparations. How it is done:
The affinity of the compounds of the invention for cannabinoid CB1 receptors was determined using membrane preparations of human embryonic kidney (HEK) cells in which the human cannabis CB1 receptor is transiently transfected using the Semliki Forest Virus system in conjunction with [3H]-CP-55,940 as radioligand. After incubation of a freshly prepared cell membrane preparation with the [3H]-ligand, with or without addition of compounds of the invention, separation of bound and free ligand was performed by filtration over glassfiber filters. Radioactivity on the filter was measured by liquid scintillation counting.

For experiment [2] the following is noted: 5, 10 and 20 mg daily; compared to placebo; cited from earlier work.
Where [3] appears, read: affinity for the CB1 receptor, [3H]-CP-55,940 as radioligand, HEK cell membranes, read-out: IC50.

Like-named read-outs stand apart in the source and are kept apart here.

As usually defined, the IC50 is the midpoint of a concentration-inhibition curve.

T1 sequence (P21554 whole entry): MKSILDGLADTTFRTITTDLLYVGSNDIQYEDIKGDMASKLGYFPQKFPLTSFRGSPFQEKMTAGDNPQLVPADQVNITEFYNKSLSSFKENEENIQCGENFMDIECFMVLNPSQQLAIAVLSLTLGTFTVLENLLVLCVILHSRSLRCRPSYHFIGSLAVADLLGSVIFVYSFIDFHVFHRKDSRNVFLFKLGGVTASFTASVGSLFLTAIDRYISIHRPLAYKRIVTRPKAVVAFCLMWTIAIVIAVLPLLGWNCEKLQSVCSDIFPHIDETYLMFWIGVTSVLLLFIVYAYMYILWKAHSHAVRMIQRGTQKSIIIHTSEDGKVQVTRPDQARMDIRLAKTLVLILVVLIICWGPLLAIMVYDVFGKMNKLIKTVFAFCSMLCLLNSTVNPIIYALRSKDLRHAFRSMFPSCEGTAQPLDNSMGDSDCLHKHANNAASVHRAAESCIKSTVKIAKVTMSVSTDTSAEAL

Turning to `CCOC(=O)c1csc(N(C(=O)c2ccc(Cl)cc2Cl)c2ccc(OC)c(OC)c2)n1` [Example 2, 2-[(2,4-Dichloro-benzoyl)-(3,4-dimethoxy-phenyl)-amino]-thiazole-4-carboxylic acid ethyl ester], in experiment [1] (setting [3]), the half-maximal inhibitory concentration (IC50) amounted to 510 nM. `O=C(c1csc(N(C(=O)c2ccc(Cl)cc2Cl)c2ccc(Cl)cc2)n1)N1CCCC1` [Example 6, 2,4-Dichloro-N-(4-chloro-phenyl)-N-[4-(pyrrolidine-1-carbonyl)-thiazol-2-yl]-benzamide]: the IC50 in experiment [1] worked out at 610 nM. On the same count and under the same terms, the same measure for `COc1ccc(N(C(=O)c2ccc(Cl)cc2Cl)c2nc(C(=O)NCc3ccccc3)cs2)cc1OC` [Example 11, 2-[(2,4-Dichloro-benzoyl)-(3,4-dimethoxy-phenyl)-amino]-thiazole-4-carboxylic acidbenzylamide]: 810 nM. For `COc1ccc(N(C(=O)c2ccccc2Cl)c2nc(C(=O)NC3CCCCC3)cs2)cc1OC` [Example 18, 2-[(2-Chloro-benzoyl)-(3,4-dimethoxy-phenyl)-amino]-thiazole-4-carboxylic acidcyclohexylamide], the IC50 in experiment [1] (setting [3]) was found to be 850 nM.

For the compound `CCCCCN(C)C(=O)c1csc(N(C(=O)c2ccc(Cl)cc2Cl)c2ccc(Cl)cc2)n1` [Example 27, 2-[(4-Chloro-phenyl)-(2,4-dichloro-benzoyl)-amino]-thiazole-4-carboxylic acid methyl-pentyl-amide], the IC50 in experiment [1] (setting [3]) was determined as 520 nM. Compound `COCCN(CCOC)C(=O)c1csc(N(C(=O)c2ccc(Cl)cc2Cl)c2ccc(Cl)cc2)n1` [Example 33, 2-[(4-Chloro-phenyl)-(2,4-dichloro-benzoyl)-amino]-thiazole-4-carboxylic acid bis-(2-methoxy-ethyl)-amide] gave an IC50 in experiment [1] of 550 nM. With `O=C(NCCc1cnc[nH]1)c1csc(N(C(=O)c2ccc(Cl)cc2Cl)c2ccc(Cl)cc2)n1` [Example 43], the IC50 in experiment [1] (setting [3]) is 810 nM. `CC(C)(C)N(CCO)C(=O)c1csc(N(C(=O)c2ccc(Cl)cc2Cl)c2ccc(Cl)cc2)n1` [Example 95, 2-[(4-Chloro-phenyl)-(2,4-dichloro-benzoyl)-amino]-thiazole-4-carboxylic acid tert-butyl-(2-hydroxy-ethyl)-amide] gave an IC50 in experiment [1] of 260 nM.

In the case of `O=C(c1cnc(N(C(=O)c2ccc(Cl)cc2Cl)c2ccc(Cl)cc2)s1)N1CCSCC1` [Example 138, 2,4-Dichloro-N-(4-chlor-o-phenyl)-N-[5-(thio-morpholine-4-car-bonyl)-thiazol-2-yl]-benz-amide], the IC50 in experiment [1] (setting [3]) was 430 nM. Compound `O=C(c1csc(N(C(=O)c2ccc(Cl)cc2Cl)c2ccc(OC(F)(F)F)cc2)n1)N1CCCC1` [Example 147, 2,4-Dichloro-N-[4-(pyrrolidine-1-carbonyl)thiazole-2-yl]-N-(4-trifluoromethoxy-phenyl)-benzamide] had an IC50 in experiment [1] of 490 nM. Regarding `Cc1c(C(=O)NN2CCCCC2)nn(-c2ccc(Cl)cc2Cl)c1-c1ccc(Cl)cc1` [SR 141716], in experiment [2], the body weight result was “significantly reduced body weight”.
